Patent US20240360153A1 (Regeneron Pharmaceuticals, Inc., priority 2023, published 2024)

Assays:
[1] = In vitro microsomal metabolic stability, human liver microsomes; assay type: in vitro ADME; conditions: for Remaining (T = 60 min) / Remaining (T = NCF60 min) / half-life at 1 µM: Human liver microsomes; for Remaining (T = 60 min): with NADPH; for Remaining (T = NCF60 min): without NADPH regenerating system; for Remaining (T = 60 min) / Remaining (T = NCF60 min): 60 min; for CLint scaled at 1 µM / microsomal CLint at 1 µM: human, human liver microsomes; for CLint scaled at 1 µM / microsomal CLint at 1 µM / half-life at 1 µM: pH 7.2; for half-life at 1 µM: 0.5 mg/ml protein, NADPH
Experimental: (§1) Buffers: PBK Buffer: 50 mM potassium phosphate buffer (PPB), pH 7.2, with 3.3 mM Magnesium Chloride.
(§2) TA Intermediate solution: Compound or control (3 μL) diluted from stock solution (10 mM) with 297 μL 90.0% methanol/water. (Conc: 100 μM; 1.0% DMSO, 89.1% MeOH).
(§3) Control cocktail intermediate solution: Each control (3 μL) was diluted with 291 μL 90.0% methanol/water.
(§4) Diluted TA intermediate stock solution and PC control stock were made by transferring 80 μL of 100 μM TA stock solution into new tubes and then adding 720 μL of 1.0% DMSO in 50 mM potassium phosphate buffer (conc. 10 μM; 1.0% DMSO, 8.91% MeOH).
(§5) Preparation of Liver microsomes working solution (1.25×)(final Conc.: 0.5 mg/mL).
(§6) Acetonitrile:methanol (9:1, v/v)(including 200 ng/mL tolbutamide and 200 ng/ml labetalol hydrochloride as internal standards).
(§7) Working solution: Intermediate solution (80 μL) was diluted with 720 μL 1.0% DMSO in 50 mM potassium phosphate buffer (Conc.: 10 μM; 1.0% DMSO, 8.91% MeOH)
(§8) Procedure: Stock solution was added to each of the time point plates. Microsomes solution (360 μL/well), TA/PC (45 μL/well), and NADPH (45 μL/well) min. (Conc: 1.0 μM, 0.10% DMSO, 0.891% MeOH) were added to the incubation plates. To the T60 and NCF60 plate, TA (15 ul/well) and Microsomes (120 ul) were added. To the blank plate, microsome (50 ul/well) with stop solution (150 ul/well) were added. At the end of each time point, 50 ul/well was aliquoted from the incubation plate. The sampling plates were shaken for approximately 10 min. on a shaker and the samples were centrifuged at 4000 rpm for 15 min. Supernatant (120 μL) was transferred for LC/MS/MS.Compounds from Table 3 were incubated at 37° C. with liver microsomes (pooled from multiple donors) at 1 μM in the presence of a NADPH regenerating system at 0.5 mg/ml microsomal protein. Positive controls included testosterone (3A4 substrate), propafenone (2D6) and diclofenac (2C9), which were incubated with microsomes in the presence of an NADPH regenerating system. At time points (0, 5, 10, 20, 30 and 60 minutes), samples were removed and immediately mixed with cold acetonitrile containing the internal standard (IS). Test compounds incubated with microsomes without the NADPH regenerating system for 60 min are also included. A single point for each test condition (n=1) was obtained, and samples were analyzed by LC/MS/MS. Disappearance of the test compound was assessed based on peak area ratios of analyte/IS (no standard curve).

[2] = In vitro microsomal metabolic stability, CD-1 mouse liver microsomes; assay type: in vitro ADME; conditions: for CLint scaled at 1 µM / microsomal CLint at 1 µM: CD-1, mouse, mouse liver microsomes, pH 7.2; for half-life at 1 µM: CD-1, pH 7.2, 0.5 mg/ml protein, NADPH; for half-life at 1 µM / Remaining (T = 60 min) / Remaining (T = NCF60 min): Mouse liver microsomes; for Remaining (T = 60 min): with NADPH; for Remaining (T = NCF60 min): without NADPH regenerating system; for Remaining (T = 60 min) / Remaining (T = NCF60 min): 60 min
Experimental: as §1, §2, §3, §4, §5, §6, §7, §8

[3] = tested on: S6K1 (Thr389) phosphorylation (mTORC1 activity) in wild-type (WT) 293T cells; assay: Inhibition of S6K1 (Thr389) phosphorylation in wild-type 293T cells (ELISA); assay type: cell-based, human; conditions: for IC50: Homo sapiens, HEK-293T, 2 h, wild-type 293T cells, 2 hours treatment; for extent of inhibition of S6K1 (Thr389) phosphorylation / fold lower potency compared with RAD001 (by IC50): wild-type cells; for extent of inhibition of S6K1 (Thr389) phosphorylation: with increasing concentrations
Experimental: (§9) Treatment of wild-type (WT) and FKBP12 knock-out 293T cells with RAD001 (everolimus) and test compounds. WT and FKBP12 knock-out 293T cells were cultured in Dulbecco's modified Eagle's medium (Gibco #11971-025) supplemented with 10% fetal bovine serum (Gibco #26140-079). Cells were plated at a density of 15,000 cells per well in poly-D-Lysine coated 96-well plates (Corning, #354461) and were incubated at 37° C., 5% CO2 for 24 hours until they reached ˜80% confluence. Cells were treated with RAD001 or test compounds reconstituted in dimethyl sulfoxide (DMSO) using a 8-11-point dose range, from 0.001 pM to 10 μM. All treatments were performed in duplicates for 2 hours at 37° C. Cell culture media supplemented with blank dimethyl sulfoxide (DMSO) was used as a negative control for all compounds. Phosphorylated amounts of S6K1 (Thr389) were measured using an ELISA kit (Invitrogen 85-86052-11), following the manufacture's protocol.
(§10) S6K1 is an immediate downstream target of mTORC1 and therefore phosphorylation of S6K1 at Thr389 residue is used to measure mTORC1 activity (PMID: 16968213). Amounts of phosphorylated S6K1 (Thr389) were measured in WT and FKBP12 knock-out 293T cells treated with either RAD001 or Compound 44 (FIGS. 1A and 1B), and Compound 45 (FIGS. 1C and 1D).

[4] = tested on: S6K1 (Thr389) phosphorylation (mTORC1 activity) in FKBP12 knock-out 293T cells; assay: Inhibition of S6K1 (Thr389) phosphorylation in FKBP12 knock-out 293T cells (ELISA); assay type: cell-based, human; conditions: for inhibition of S6K1 (Thr389) phosphorylation in the absence of FKBP12 (in words): FKBP12 knock-out cells; for selectivity for FKBP12 compared with RAD001 (in words): wild-type versus FKBP12 knock-out cells
Description: Example Generation of FKBP 12 knock-out cells. A CRISPR/Cas9 system was used to deliver ribonucleoprotein complexes containing guide RNA sequences that target FKBP12 (ac[…], location 1369062; ccactactcac[…], location 1369181) in HEK293T cells using Lipofectamine CRISPRMAX transfection reagent (Invitrogen CMAX00008). Cell clones were screened by immunoblotting with anti-FKBP-specific antibody (Novus, NB300-508). Single cells that were deficient for FKBP12 protein were selected and cloned.
as §9, §10

| SMILES | Remaining (T = 60 min) [1] [%] | Remaining (T = NCF60 min) [1] [%] | CLint scaled at 1 µM [1] [mL/min/kg] | microsomal CLint at 1 µM [1] [µL/min/mg] | half-life at 1 µM [1] [h] | CLint scaled at 1 µM [2] [mL/min/kg] | microsomal CLint at 1 µM [2] [µL/min/mg] | half-life at 1 µM [2] [h] | Remaining (T = 60 min) [2] [%] | Remaining (T = NCF60 min) [2] [%] | IC50 [3] [nM] | extent of inhibition of S6K1 (Thr389) phosphorylation [3] | IC50 of inhibition of S6K1 (Thr389) ([4]; FKBP12 knock-out 293T cells) | inhibition of S6K1 (Thr389) phosphorylation in the absence of FKBP12 (in words) [4] | selectivity for FKBP12 compared with RAD001 (in words) [4] | fold lower potency compared with RAD001 (by IC50) [3] [fold] |
| --- | --- | --- | --- | --- | --- | --- | --- | --- | --- | --- | --- | --- | --- | --- | --- | --- |
| CO[C@@H]1CC(C[C@@H](C)[C@@H]2CC[C@H](C)/C=C(\C)[C@@H](O)[C@@H](OC)C(=O)[C@H](C)C[C@H](C)/C=C/C=C/C=C(\C)C(Nc3cncc(C)n3)CC3CC[C@@H](C)[C@@](O)(O3)C(=O)C(=O)N3CCCC[C@H]3C(=O)O2)CC[C@H]1O (stereo partly drawn) [Compound 28, (3S,6S,7E,9R,10R,12R,14S,15E,17E,19E,23S,26R,27R,34aS)-9,27-dihydroxy-3-((R)-1-((1S,3R,4R)-4-hydroxy-3-methoxycyclohexyl)propan-2-yl)-10-methoxy-6,8,12,14,20,26-hexamethyl-21-((6-methylpyrazin-2-yl)amino)-5,6,9,10,12,13,14,21,22,23,24,25,26,27,32,33,34,34a-octadecahydro-3H-23,27-epoxypyrido[2,1-c][1]oxa[4]azacyclohentriacontine-1,11,28,29(4H,31H)-tetraone] | 19.40 | 84.00 | 47.5 | 52.8 | 0.438 | 65.7 | 16.6 | 1.39 | 59.40 | 106 | 3 | complete inhibition | not measurable/detectable | behaved in a similar fashion to RAD001 | not greater compared with RAD001 |  |
| CO[C@@H]1C[C@H](C[C@@H](C)[C@@H]2CC[C@H](C)/C=C(\C)[C@@H](O)[C@@H](OC)C(=O)[C@H](C)C[C@H](C)/C=C/C=C/C=C(\C)C(Nc3ccc(C)cc3)C[C@@H]3CC[C@@H](C)[C@@](O)(O3)C(=O)C(=O)N3CCCCC3C(=O)O2)CC[C@H]1O (stereo partly drawn) [Compound 49, (3S,6S,7E,9R,10R,12R,14S,15E,17E,19E,23S,26R,27R,34aS)-9,27-dihydroxy-3-((R)-1-((1S,3R,4R)-4-hydroxy-3-methoxycyclohexyl)propan-2-yl)-10-methoxy-6,8,12,14,20,26-hexamethyl-21-(p-tolylamino)-5,6,9,10,12,13,14,21,22,23,24,25,26,27,32,33,34,34a-octadecahydro-3H-23,27-epoxypyrido[2,1-c][1]oxa[4]azacyclohentriacontine-1,11,28,29(4H,31H)-tetraone] | 15 | 102 | 59.6 | 66.2 | 0.348 | 42.3 | 10.7 | 2.17 | 67 | 139 | 9.5 | near complete inhibition |  | did not inhibit S6K1 (Thr389)phosphorylation at any tested concentrations | relatively more selective to FKBP12 compared with RAD001 | 29 |
| CCOc1cccc(NC2C[C@@H]3CC[C@@H](C)[C@@](O)(O3)C(=O)C(=O)N3CCCCC3C(=O)O[C@H]([C@H](C)C[C@@H]3CC[C@@H](O)[C@H](OC)C3)CC[C@H](C)/C=C(\C)[C@@H](O)[C@@H](OC)C(=O)[C@H](C)C[C@H](C)/C=C/C=C/C=C/2C)c1 (stereo partly drawn) [Compound 59, (3S,6S,7E,9R,10R,12R,14S,15E,17E,19E,23S,26R,27R,34aS)-21-((3-ethoxyphenyl)amino)-9,27-dihydroxy-3-((R)-1-((1S,3R,4R)-4-hydroxy-3-methoxycyclohexyl)propan-2-yl)-10-methoxy-6,8,12,14,20,26-hexamethyl-5,6,9,10,12,13,14,21,22,23,24,25,26,27,32,33,34,34a-octadecahydro-3H-23,27-epoxypyrido[2,1-c][1]oxa[4]azacyclohentriacontine-1,11,28,29(4H,31H)-tetraone] | 47 | 102 | 22.2 | 24.7 | 0.937 | 40.8 | 10.3 | 2.25 | 76 | 112 | 0.17 | near complete inhibition |  | inhibited the mTORC1 signaling in a dose dependent manner | relatively not FKBP12 selective | 2 |
| CO[C@@H]1C[C@H](C[C@@H](C)[C@@H]2CC[C@H](C)/C=C(\C)[C@@H](O)[C@@H](OC)C(=O)[C@H](C)C[C@H](C)/C=C/C=C/C=C(\C)C(Nc3cccc(OC(F)(F)F)c3)C[C@@H]3CC[C@@H](C)[C@@](O)(O3)C(=O)C(=O)N3CCCCC3C(=O)O2)CC[C@H]1O (stereo partly drawn) [Compound 58, (3S,6S,7E,9R,10R,12R,14S,15E,17E,19E,23S,26R,27R,34aS)-9,27-dihydroxy-3-((R)-1-((1S,3R,4R)-4-hydroxy-3-methoxycyclohexyl)propan-2-yl)-10-methoxy-6,8,12,14,20,26-hexamethyl-21-((3-(trifluoromethoxy)phenyl)amino)-5,6,9,10,12,13,14,21,22,23,24,25,26,27,32,33,34,34a-octadecahydro-3H-23,27-epoxypyrido[2,1-c][1]oxa[4]azacyclohentriacontine-1,11,28,29(4H,31H)-tetraone] | 55 | 93 | 18 | 20 | 1.16 | 25.3 | 6.4 | 3.62 | 83 | 96 | 2.94 | near complete inhibition |  | inhibited the mTORC1 signaling in a dose dependent manner | relatively not FKBP12 selective | 35 |
